Measurements as given in ChEMBL document CHEMBL1135223, “Peptidomimetics of efflux pump inhibitors potentiate the activity of levofloxacin in Pseudomonas aeruginosa” (2002).

Assays:
Pseudomonas aeruginosa [1] = test: Tested for the minimum inhibitory concentration (MIC) against growth of PAM 1032, a strain of Pseudomonas aeruginosa; assay type: functional
Pseudomonas aeruginosa [2] = test: Minimum concentration required to reduce (potentiate) the MIC of levofloxacin of Pseudomonas aeruginosa by 8-folds; assay type: functional

For `NCCC[C@@H](N)C(=O)N[C@H](CCc1ccccc1)C(=O)Nc1cnc2ccccc2c1`, the MIC (Pseudomonas aeruginosa [1]) was > 512 µg/mL and the MPC8 (Pseudomonas aeruginosa [2]) was 10 µg/mL.
`Cc1cc2nc(C(O)[C@@H](CCc3ccccc3)NCC(O)[C@H](N)CCCN)oc2cc1C.O=C(O)C(F)(F)F.O=C(O)C(F)(F)F` (some centres undefined) showed an MIC (Pseudomonas aeruginosa [1]) of 128 µg/mL and an MPC8 (Pseudomonas aeruginosa [2]) of 1.25 µg/mL.
For `NCCC[C@@H](N)C(=O)N[C@H](CCc1ccccc1)C(O)c1nc2ccccc2[nH]1.O=C(O)C(F)(F)F.O=C(O)C(F)(F)F` (some centres undefined), the MIC (Pseudomonas aeruginosa [1]) was > 512 µg/mL and the MPC8 (Pseudomonas aeruginosa [2]) was 20 µg/mL.
`NCCC[C@@H](N)C(=O)N[C@H](CCc1ccccc1)C(O)c1nc2ccccc2o1.O=C(O)C(F)(F)F.O=C(O)C(F)(F)F` (some centres undefined) was tested, and the MIC (Pseudomonas aeruginosa [1]) was > 512 µg/mL and the MPC8 (Pseudomonas aeruginosa [2]) was 10 µg/mL.
`NCCC[C@@H](N)C(O)CN[C@H](CCc1ccccc1)c1nc(C(=O)Nc2cnc3ccccc3c2)co1.O=C(O)C(F)(F)F.O=C(O)C(F)(F)F` (some centres undefined) showed an MIC (Pseudomonas aeruginosa [1]) of 64 µg/mL and an MPC8 (Pseudomonas aeruginosa [2]) of 5 µg/mL.
Compound `NCCC[C@@H](N)C(=O)N[C@H](CCc1ccccc1)CSc1ccc(Cl)cc1.O=C(O)C(F)(F)F.O=C(O)C(F)(F)F` has an MIC (Pseudomonas aeruginosa [1]) of 64 µg/mL and an MPC8 (Pseudomonas aeruginosa [2]) of 1.25 µg/mL.
`NCCC[C@@H](N)C(=O)N[C@H](CCc1ccccc1)c1nc(C(=O)Nc2ccc3ccccc3c2)co1.O=C(O)C(F)(F)F.O=C(O)C(F)(F)F` showed an MIC (Pseudomonas aeruginosa [1]) of 16 µg/mL and an MPC8 (Pseudomonas aeruginosa [2]) of 2.5 µg/mL.
In the case of `Cc1ccc(CCN(CCC(=O)Nc2cnc3ccccc3c2)C(=O)[C@H](N)CCCN)cc1.O=C(O)C(F)(F)F.O=C(O)C(F)(F)F`, the MIC (Pseudomonas aeruginosa [1]) is reported as 256 µg/mL and the MPC8 (Pseudomonas aeruginosa [2]) is reported as 5 µg/mL.
Work on `NCCC[C@@H](N)C(O)CN[C@H](CCc1ccccc1)C(=O)Nc1cnc2ccccc2c1.O=C(O)C(F)(F)F.O=C(O)C(F)(F)F` (some centres undefined) yielded an MIC (Pseudomonas aeruginosa [1]) of 128 µg/mL and an MPC8 (Pseudomonas aeruginosa [2]) of 2.5 µg/mL.
In the case of `NCCC[C@@H](N)C(=O)N[C@H](CCc1ccccc1)C(O)c1nc2ccccc2s1.O=C(O)C(F)(F)F.O=C(O)C(F)(F)F` (some centres undefined), the MIC (Pseudomonas aeruginosa [1]) is reported as 512 µg/mL and the MPC8 (Pseudomonas aeruginosa [2]) is reported as 20 µg/mL.
`NCCC[C@@H](N)C(=O)N[C@H](CCc1ccccc1)C(O)c1nc2cc(Cl)ccc2o1.O=C(O)C(F)(F)F.O=C(O)C(F)(F)F` (some centres undefined) was tested, and the MIC (Pseudomonas aeruginosa [1]) was 256 µg/mL and the MPC8 (Pseudomonas aeruginosa [2]) was 5 µg/mL.
`NCCC[C@@H](N)C(=O)N[C@H](CCc1ccccc1)c1nc(C(=O)Nc2cnc3ccccc3c2)co1.O=C(O)C(F)(F)F.O=C(O)C(F)(F)F` was tested, and the MIC (Pseudomonas aeruginosa [1]) was 128 µg/mL and the MPC8 (Pseudomonas aeruginosa [2]) was 5 µg/mL.
For `NCCC[C@@H](N)C(=O)N(CCC(=O)Nc1cnc2ccccc2c1)CCc1ccccc1.O=C(O)C(F)(F)F.O=C(O)C(F)(F)F`, the MIC (Pseudomonas aeruginosa [1]) was > 512 µg/mL and the MPC8 (Pseudomonas aeruginosa [2]) was 10 µg/mL.
`CC(C)CCN(CCC(=O)Nc1cnc2ccccc2c1)C(=O)[C@H](N)CCCN.O=C(O)C(F)(F)F.O=C(O)C(F)(F)F` was tested, and the MIC (Pseudomonas aeruginosa [1]) was > 512 µg/mL and the MPC8 (Pseudomonas aeruginosa [2]) was 10 µg/mL.
Compound `NCCC[C@@H](N)C(=O)N[C@H](CCc1ccccc1)COc1ccc(Cl)cc1.O=C(O)C(F)(F)F.O=C(O)C(F)(F)F` has an MIC (Pseudomonas aeruginosa [1]) of 128 µg/mL and an MPC8 (Pseudomonas aeruginosa [2]) of 5 µg/mL.
With `Cc1cc2nc(C(O)[C@@H](CCc3ccccc3)NC(=O)[C@H](N)CCCN)oc2cc1C.O=C(O)C(F)(F)F.O=C(O)C(F)(F)F` (some centres undefined) the MIC (Pseudomonas aeruginosa [1]) was 128 µg/mL and the MPC8 (Pseudomonas aeruginosa [2]) was 2.5 µg/mL.
`COc1ccc(CCN(CCC(=O)Nc2cnc3ccccc3c2)C(=O)[C@H](N)CCCN)cc1.O=C(O)C(F)(F)F.O=C(O)C(F)(F)F` showed an MIC (Pseudomonas aeruginosa [1]) of 512 µg/mL and an MPC8 (Pseudomonas aeruginosa [2]) of 10 µg/mL.
